Measured values reported in US5741798A, “2-benzyl-4-sulfonyl-4H-isoquinolin-1,3-diones and their use as antiinflammatory agents” (priority 1997, dated 1998).
Where two headings read alike, the source gives them in different places.

Tests used:
[1] = target: T1, Human cyclooxygenase 2 (COX-2) (Homo sapiens, UniProt P35354); assay: COX-2 inhibition, microsomal assay; details: 20 min, read-out: % Inhibition of COX Enzymes in Microsomal Assays, COX-2
T1 sequence (P35354 18-604): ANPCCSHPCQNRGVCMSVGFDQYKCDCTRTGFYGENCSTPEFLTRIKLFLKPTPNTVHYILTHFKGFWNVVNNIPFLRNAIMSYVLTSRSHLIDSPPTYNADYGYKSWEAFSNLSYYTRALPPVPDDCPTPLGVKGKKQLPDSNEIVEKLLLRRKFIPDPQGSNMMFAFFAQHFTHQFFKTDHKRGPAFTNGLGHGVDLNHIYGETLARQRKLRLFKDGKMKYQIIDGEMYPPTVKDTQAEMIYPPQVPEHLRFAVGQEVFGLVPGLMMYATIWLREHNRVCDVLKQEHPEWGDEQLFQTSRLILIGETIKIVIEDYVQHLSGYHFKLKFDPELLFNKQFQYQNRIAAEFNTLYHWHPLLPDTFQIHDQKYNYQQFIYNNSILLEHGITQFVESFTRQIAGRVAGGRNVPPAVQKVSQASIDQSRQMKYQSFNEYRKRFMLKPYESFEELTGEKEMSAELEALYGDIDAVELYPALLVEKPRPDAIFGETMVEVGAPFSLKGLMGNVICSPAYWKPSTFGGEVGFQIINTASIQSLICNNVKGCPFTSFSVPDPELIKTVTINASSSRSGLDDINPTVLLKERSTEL
Procedure: (§1) Human cyclooxygenase 1 and 2 are expressed in a baculovirus expression system using High 5 insect cells. Microsomal fractions prepared from the cells are stored at -80° C. The assays are performed at room temperature in phosphate buffered saline. After incubating the COX-1 or COX-2 microsomes with hematin (2 μM), phenol (0.5 mM) and reduced glutathione (1 mM) for 5 minutes, inhibitor or DMSO vehicle is added and allowed to incubate for 20 minutes. Arachidonic acid (2 μM) is added and after 20 minutes the reaction is stopped by the addition of HCl (0.1 N HCl final concentration).
(§2) The inhibitory activities against COX-1 and COX-2 of the compounds described in the above Synthetic Examples were determined using the two in vitro assays described above.

[2] = target: Human cyclooxygenase 1 (COX-1) (Homo sapiens, UniProt P23219); assay: COX-1 inhibition, microsomal assay; details: 20 min, read-out: % Inhibition of COX Enzymes in Microsomal Assays, COX-1
Procedure: as §1, §2

human recombinant COX-2 = target: T2, human recombinant COX-2 (Homo sapiens, UniProt P35354); assay: COX-2 inhibition, COS cell assay; type: cell-based; details: for inhibition at 1 µM / inhibition at 10 µM / inhibition at 0.1 µM: COS, read-out: Inhibition of COX Enzymes in COS Cell Assays, COX-2 % inhibition; for IC50: COS cells, COX-2, read-out: Inhibition of COX Enzymes in COS Cell Assays, COX-2 IC50
T2 construct: expressed in transfected cells; host or cells: Cos-A2 cells, stably transfected
T2 sequence (P35354 18-604): T1 sequence (P35354 18-604)
Procedure: (§3) Cos-A2 cells stably transfected with human recombinant COX-1 or COX-2 are cultured in 96 well tissue culture plates with Dulbecco's Modified Eagle Medium supplemented with 10% fetal bovine serum, glutamine (2 mM), penicillin (50 U/mL), streptomycin ([…]) and geneticin (400 μg/mL). Media is removed from confluent monolayers and the cells are washed twice with Hank's buffered saline solution. Fresh HBSS is added, with or without inhibitor, and the cells are incubated for 30 minutes at 37° C. Arachidonic acid (30 μM) is then added and the cells are incubated for an additional one hour at 37° C. Individual experiments represent a mean of triplicate wells for control and inhibitor doses. Supernatents are removed and stored at -80° C. until assayed for PGE2 by EIA (Amersham).
as §2

human recombinant COX-1 = target: T3, human recombinant COX-1 (Homo sapiens, UniProt P23219); assay: COX-1 inhibition, COS cell assay; type: cell-based; details: for inhibition at 1 µM / inhibition at 10 µM / inhibition at 0.1 µM: COS, read-out: Inhibition of COX Enzymes in COS Cell Assays, COX-1 % inhibition
T3 construct: expressed in transfected cells; host or cells: Cos-A2 cells, stably transfected
Procedure: as §3, §2

[3] = test system: Carrageenan-induced paw edema; assay: Carrageenan-Induced Paw Edema in Rats; type: in vivo, rat; details: oral, 10 mg/kg; *p < 0.05
Procedure: The antiinflammatory activities of two compounds in accordance with the invention (those of Examples 1 and 10) were determined in vivo and compared to those of the known antiinflammatory agents indomethacin and meloxicam, using the Carrageenan-Induced Paw Edema in Rats protocol described by C. A Winter et al. J. Pharmacol. Exp. Ther. 1963, 141, 369. Test compounds were administered orally.

T3 sequence (P23219 24-599): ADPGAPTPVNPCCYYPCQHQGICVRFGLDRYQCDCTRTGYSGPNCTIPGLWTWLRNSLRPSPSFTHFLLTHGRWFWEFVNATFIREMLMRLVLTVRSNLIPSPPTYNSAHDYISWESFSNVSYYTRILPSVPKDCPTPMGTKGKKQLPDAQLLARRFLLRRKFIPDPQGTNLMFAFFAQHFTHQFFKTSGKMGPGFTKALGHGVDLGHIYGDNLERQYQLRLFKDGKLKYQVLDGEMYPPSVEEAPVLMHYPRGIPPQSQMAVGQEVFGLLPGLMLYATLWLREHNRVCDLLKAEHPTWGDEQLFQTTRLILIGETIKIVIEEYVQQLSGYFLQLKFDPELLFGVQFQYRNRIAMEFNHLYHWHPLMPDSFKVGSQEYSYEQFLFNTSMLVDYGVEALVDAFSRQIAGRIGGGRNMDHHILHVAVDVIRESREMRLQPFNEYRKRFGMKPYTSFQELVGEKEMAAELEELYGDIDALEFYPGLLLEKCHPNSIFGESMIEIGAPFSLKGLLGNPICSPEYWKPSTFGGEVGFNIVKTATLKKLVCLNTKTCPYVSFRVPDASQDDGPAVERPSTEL
Sequence of Human cyclooxygenase 1 (COX-1) (P23219 24-599): as above

Compound	inhibition at 0.1 µg/mL [1]	inhibition at 1 µg/mL [1]	inhibition at 10 µg/mL [1]	inhibition at 0.1 µg/mL [2]	inhibition at 1 µg/mL [2]	inhibition at 10 µg/mL [2]	inhibition at 1 µM (human recombinant COX-2)	inhibition at 10 µM (human recombinant COX-2)	inhibition at 1 µM (human recombinant COX-1; 1 μM)	inhibition at 10 µM (human recombinant COX-1; 10 μM)	inhibition at 0.1 µM (human recombinant COX-2)	inhibition at 0.1 µM (human recombinant COX-1; 0.1 μM)	IC50 (human recombinant COX-2)	IC50 (human recombinant COX-1; COS cells, COX-1, read-out: Inhibition of COX Enzymes in COS Cell Assays, COX-1 IC50)	inhibition at 0.1 µM (human recombinant COX-1)	inhibition at 1 µM (human recombinant COX-1)	inhibition at 10 µM (human recombinant COX-1)	Effect of Compounds in Carrageenen Paw Edema in Rats, % Inhibition [3]
CC(C)S(=O)(=O)C1C(=O)N(Cc2ccccc2F)C(=O)c2ccccc21 (stereo not shown) [Example 2, 2-(2-Fluorobenzyl)-4-(1-methylethyl)sulfonyl-4H-isoquinoline-1,3-dione]	10%	37%	49%	-1%	14%	18%	45%	46%	33%	39%	–	–	–	–	–	–	–	–
CCCS(=O)(=O)C1C(=O)N(Cc2ccccc2)C(=O)c2ccccc21 (stereo not shown) [Example 3]	-6%	15%	27%	-9%	22%	33%	–	–	–	–	–	–	–	–	–	–	–	–
CC(C)S(=O)(=O)C1C(=O)N(Cc2ccccc2)C(=O)c2ccccc21 (stereo not shown) [Example 5]	27%	56%	58%	-6%	11%	23%	37%	51%	–	–	17%	–	–	–	13%	43%	74%	–
CC(C)S(=O)(=O)C1C(=O)N(Cc2cccc(Cl)c2)C(=O)c2ccccc21 (stereo not shown) [Example 6]	10%	27%	27%	-10%	19%	30%	–	–	–	–	–	–	–	–	–	–	–	–
CC(C)S(=O)(=O)C1C(=O)N(Cc2ccc(F)cc2)C(=O)c2ccccc21 (stereo not shown) [Example 8]	-1%	68%	86%	–	–	–	–	–	–	–	–	–	90 nM	–	–	–	–	–
CC(C)S(=O)(=O)C1C(=O)N(Cc2ccc(F)c(F)c2)C(=O)c2ccccc21 (stereo not shown) [Example 9]	8%	75%	80%	10%	17%	57%	–	–	–	–	–	–	200 nM	570 nM	–	–	–	–
O=C1c2ccccc2C(S(=O)(=O)c2ccccc2)C(=O)N1Cc1ccccc1 (stereo not shown) [Example 12]	–	–	–	17%	59%	74%	–	–	61%	85%	–	22%	–	–	–	–	–	–
O=C1c2ccccc2C(S(=O)(=O)c2ccc(Br)cc2)C(=O)N1Cc1ccccc1 (stereo not shown) [Example 13]	28%	92%	100%	44%	74%	100%	–	–	–	–	–	–	–	–	–	–	–	–
Cc1ccc(S(=O)(=O)C2C(=O)N(Cc3ccccc3)C(=O)c3ccccc32)cc1 (stereo not shown) [Example 14]	-13%	63%	100%	59%	93%	100%	–	–	–	–	–	–	–	–	–	–	–	–
O=C1c2ccccc2C(S(=O)(=O)c2ccc3ccccc3c2)C(=O)N1Cc1ccccc1 (stereo not shown) [Example 15]	-29%	14%	34%	23%	24%	57%	–	–	–	–	–	–	–	–	–	–	–	–
COc1ccc(S(=O)(=O)C2C(=O)N(Cc3ccccc3)C(=O)c3ccccc32)cc1 (stereo not shown) [Example 16]	21%	74%	97%	33%	81%	93%	–	–	–	–	–	–	–	–	–	–	–	–
O=C1c2ccccc2C(S(=O)(=O)c2ccc(F)cc2)C(=O)N1Cc1ccccc1 (stereo not shown) [Example 18]	33%	66%	81%	48%	76%	92%	–	–	–	–	–	–	–	–	–	–	–	–
COc1ccc2c(c1)c(CC(=O)O)c(C)n2C(=O)c1ccc(Cl)cc1 [Indomethacin, reference compound]	–	–	–	–	–	–	–	–	–	–	–	–	–	–	–	–	–	58%

Further lines, with some results ahead:

inhibition at 0.1 µg/mL [1]	inhibition at 1 µg/mL [1]	inhibition at 10 µg/mL [1]	inhibition at 0.1 µg/mL [2]	inhibition at 1 µg/mL [2]	inhibition at 10 µg/mL [2]	inhibition at 1 µM (human recombinant COX-2)	inhibition at 10 µM (human recombinant COX-2)	inhibition at 1 µM (human recombinant COX-1; 1 μM)	inhibition at 10 µM (human recombinant COX-1; 10 μM)	inhibition at 0.1 µM (human recombinant COX-2)	inhibition at 0.1 µM (human recombinant COX-1; 0.1 μM)	IC50 (human recombinant COX-2)	IC50 (human recombinant COX-1; COS cells, COX-1, read-out: Inhibition of COX Enzymes in COS Cell Assays, COX-1 IC50)	Compound	inhibition at 0.1 µM (human recombinant COX-1)	inhibition at 1 µM (human recombinant COX-1)	inhibition at 10 µM (human recombinant COX-1)	Effect of Compounds in Carrageenen Paw Edema in Rats, % Inhibition [3]
0%	30%	20%	4%	15%	15%	–	–	–	–	–	–	–	–	CCCCS(=O)(=O)C1C(=O)N(Cc2ccccc2)C(=O)c2ccccc21 (stereo not shown) [Example 4]	–	–	–	–
3%	62%	67%	-3%	4%	36%	52%	74%	46%	72%	26%	6%	–	–	CC(C)S(=O)(=O)C1C(=O)N(Cc2ccc(Cl)cc2)C(=O)c2ccccc21 (stereo not shown) [Example 7]	–	–	–	–
23%	32%	52%	4%	21%	50%	0%	30%	0%	64%	–	–	64000 nM	–	O=C1c2ccccc2C(S(=O)(=O)CC(F)(F)F)C(=O)N1Cc1ccccc1 (stereo not shown) [Example 11]	–	–	–	–
20%	12%	39%	17%	20%	45%	–	–	–	–	–	–	–	–	CC(C)(C)c1ccc(S(=O)(=O)C2C(=O)N(Cc3ccccc3)C(=O)c3ccccc32)cc1 (stereo not shown) [Example 17]	–	–	–	–
59%	89%	93%	52%	71%	89%	–	–	–	–	–	–	–	–	O=C1c2ccccc2C(S(=O)(=O)c2ccc(Cl)cc2)C(=O)N1Cc1ccccc1 (stereo not shown) [Example 19]	–	–	–	–
20%	37%	46%	21%	41%	62%	–	–	–	–	–	–	–	–	O=C1c2ccccc2C(S(=O)(=O)c2ccc([N+](=O)[O-])cc2)C(=O)N1Cc1ccccc1 (stereo not shown) [Example 20]	–	–	–	–
12%	46%	48%	17%	14%	67%	80%	89%	67%	94%	65%	35%	–	–	O=C1c2ccccc2C(S(=O)(=O)c2cccs2)C(=O)N1Cc1ccccc1 (stereo not shown) [Example 21]	–	–	–	–
